Assay results from publication PMC10221074, “Functional Profiling of the A-Family of Venom Peptides from the Wolf Spider Lycosa shansia” (Toxins, 2023).

How the values were obtained:
[1] = tested on: panel of seven bacterial strains; assay: Antibacterial growth assay (OD600), statements on the whole panel; format: cell-based; settings: growth after 48 h
[2] = tested on: Staphylococcus aureus DSM 2569; assay: Antibacterial growth assay (OD600); settings: OD600, medium = 100, MH II broth, 37 °C, peptide 200 µM mixed 50 µL + 50 µL with bacteria, Figure 7: 48 h; for Bacterial growth relative to medium, S. aureus, replicate 1: replicate column 1; for Bacterial growth relative to medium, S. aureus, replicate 2: replicate column 2; for Bacterial growth relative to medium, S. aureus, replicate 3: replicate column 3
[3] = tested on: Staphylococcus epidermidis DSM 28319; assay: Antibacterial growth assay (OD600); settings: OD600, medium = 100, MH II broth, 37 °C, peptide 200 µM mixed 50 µL + 50 µL with bacteria, Figure 7: 48 h; for Bacterial growth relative to medium, S. epidermidis, replicate 1: replicate column 1; for Bacterial growth relative to medium, S. epidermidis, replicate 2: replicate column 2; for Bacterial growth relative to medium, S. epidermidis, replicate 3: replicate column 3
Method: (§1) Cryo-conserved cultures of selected bacterial strains (Table 4) were transferred to Tryptic Soy Agar (TSA) plates (Carl Roth) with a sterile inoculation loop, sealed with Parafilm (BEMIS, Neenah, WI, USA), and incubated for 1–2 days at 37 °C depending on growth. Single colonies were picked and transferred into 2–3 mL of the Mueller–Hinton II (MH II) broth (BD, Heidelberg, Germany). The bacteria were cultivated overnight, subcultured on fresh medium and grown for 3–4 h before testing at 37 °C, with shaking at 180 rpm. We measured the optical density at 600 nm (OD600) of 1 mL of the bacterial suspensions in polystyrene cuvettes (SARSTED, Nümbrecht, Germany) using an Ultrospec 10 spectrophotometer (Biochrome, Cambridge, UK). We then diluted them with the MH II medium to the preferred OD600 (Table 2). The peptides were dissolved in DMSO to generate 10 mmol/L stocks and diluted with the MH II medium to 200 µM before the assay. We used 10 µg/mL (~40 µg/mL for S. epidermidis) gentamicin and colistin (Sigma-Aldrich, Taufkirchen, Germany), DMSO and the medium only as controls. The bacteria were transferred to 96-multiwell plates with a final volume of 100 µL per well (50 µL bacterial suspension, and 50 µL test peptide). The OD600 was measured at 0, 24 and 48 h using a BioTek Eon microplate reader followed by analysis with Gen5 v2.09.

[4] = tested on: Escherichia coli BL21(DE3); assay: Antibacterial growth assay (OD600); settings: OD600, medium = 100, MH II broth, 37 °C, peptide 200 µM mixed 50 µL + 50 µL with bacteria, Figure 7: 48 h; for Bacterial growth relative to medium, E. coli, replicate 1: replicate column 1; for Bacterial growth relative to medium, E. coli, replicate 2: replicate column 2; for Bacterial growth relative to medium, E. coli, replicate 3: replicate column 3
Method: as §1

[5] = tested on: Micrococcus luteus DSM 20030; assay: Antibacterial growth assay (OD600); settings: for Antibacterial activity (in words): M. luteus DSM 20030, growth after 48 h; for Bacterial growth relative to medium, M. luteus, replicate 1 / Bacterial growth relative to medium, M. luteus, replicate 2 / Bacterial growth relative to medium, M. luteus, replicate 3: OD600, medium = 100, MH II broth, 37 °C, peptide 200 µM mixed 50 µL + 50 µL with bacteria, Figure 7: 48 h; for Bacterial growth relative to medium, M. luteus, replicate 1: replicate column 1; for Bacterial growth relative to medium, M. luteus, replicate 2: replicate column 2; for Bacterial growth relative to medium, M. luteus, replicate 3: replicate column 3
Method: as §1

[6] = tested on: B/Malaysia/2506/2004 (B-Mal); format: cell-based, influenza virus
A/Hessen/1/2003 (H3N2) = format: cell-based, influenza virus
[7] = tested on: Listeria monocytogenes DSM 20600; assay: Antibacterial growth assay (OD600); settings: OD600, medium = 100, MH II broth, 37 °C, peptide 200 µM mixed 50 µL + 50 µL with bacteria, Figure 7: 48 h; for Bacterial growth relative to medium, L. monocytogenes, replicate 1: replicate column 1; for Bacterial growth relative to medium, L. monocytogenes, replicate 2: replicate column 2; for Bacterial growth relative to medium, L. monocytogenes, replicate 3: replicate column 3
A/Hamburg/05/2009 (H1N1) = format: cell-based, influenza virus
[8] = tested on: Pseudomonas aeruginosa DSM 50071; assay: Antibacterial growth assay (OD600); settings: OD600, medium = 100, MH II broth, 37 °C, peptide 200 µM mixed 50 µL + 50 µL with bacteria, Figure 7: 48 h; for Bacterial growth relative to medium, P. aeruginosa (50071), replicate 1: replicate column 1; for Bacterial growth relative to medium, P. aeruginosa (50071), replicate 2: replicate column 2; for Bacterial growth relative to medium, P. aeruginosa (50071), replicate 3: replicate column 3
[9] = tested on: Pseudomonas aeruginosa DSM 1117; assay: Antibacterial growth assay (OD600); settings: OD600, medium = 100, MH II broth, 37 °C, peptide 200 µM mixed 50 µL + 50 µL with bacteria, Figure 7: 48 h; for Bacterial growth relative to medium, P. aeruginosa (1117), replicate 1: replicate column 1; for Bacterial growth relative to medium, P. aeruginosa (1117), replicate 2: replicate column 2; for Bacterial growth relative to medium, P. aeruginosa (1117), replicate 3: replicate column 3
Method: as §1

G. mellonella larvae = assay: Insecticidal activity by injection into larvae; format: in vivo, Galleria mellonella; settings: 50 ng peptide injected, 3 cohorts of 10 larvae, survival monitored for 5 days
Method: Insecticidal activity was determined using fourth and fifth instar G. mellonella larvae (L4/L5) obtained from Fauna Topics Zoobedarf Zucht und Handels GmbH (Marbach am Neckar, Germany). Because spider venom is injected via chelicerae, we opted for an injection-based assay to reflect the natural process of envenomation as described earlier. The peptides were dissolved in a 1:1 mixture of DMSO and water to a final concentration of 10 mmol/L. We injected 50 ng of each peptide into the pseudopodium using Omnican-F, 0.30 × 12 mm/G 30 × 1/2”, a 1 mL syringe adjusted to a WPI manual microsyringe injector setup. Injections with water, DMSO/water (1:1) and ethanol (90%) were used as controls, alongside untreated specimens. Insecticidal activity screenings were performed in cohorts of 10 larvae with 3 replicates (30 specimens per treatment or control). […] Survival was monitored every 24 h for 5 days. Mortality was calculated based on the ratio of dead to injected specimens.

Sequence | Antibacterial activity over the panel (in words) [1] | Bacterial growth relative to medium, S. aureus, replicate 1 [2] | Bacterial growth relative to medium, S. aureus, replicate 2 [2] | Bacterial growth relative to medium, S. aureus, replicate 3 [2] | Bacterial growth relative to medium, S. epidermidis, replicate 1 [3] | Bacterial growth relative to medium, S. epidermidis, replicate 2 [3] | Bacterial growth relative to medium, S. epidermidis, replicate 3 [3] | Bacterial growth relative to medium, E. coli, replicate 1 [4] | Bacterial growth relative to medium, E. coli, replicate 2 [4] | Bacterial growth relative to medium, E. coli, replicate 3 [4] | Antibacterial activity (in words) [5] | Bacterial growth relative to medium, M. luteus, replicate 1 [5] | Bacterial growth relative to medium, M. luteus, replicate 2 [5] | Bacterial growth relative to medium, M. luteus, replicate 3 [5] | Viability of infected cells relative to aprotinin, Replicate 1 [6] | Viability of infected cells relative to aprotinin, Replicate 2 [6] | Viability of infected cells relative to aprotinin, Replicate 3 [6] | Viability of infected cells relative to aprotinin, Replicate 1 (A/Hessen/1/2003 (H3N2)) | Viability of infected cells relative to aprotinin, Replicate 2 (A/Hessen/1/2003 (H3N2)) | Viability of infected cells relative to aprotinin, Replicate 3 (A/Hessen/1/2003 (H3N2)) | other results
GSLLGLLDVVKSKVGQTGLL [LS-AMP-A19] | largely inactive | 70.8601 | 71.4846 | 83.7635 | 91.5432 | 106.521 | 92.445 | 95.9562 | 82.2712 | 94.9872 | strongly suppressed the growth | 38.8889 | 63.626 | 16.4993 | 0.02926 | 0.02406 | 0.04584 | 0.07115 | 0.1267 | 0.119 | Bacterial growth relative to medium, L. monocytogenes, replicate 1 [7]: 151.42; Bacterial growth relative to medium, L. monocytogenes, replicate 2 [7]: 105.659; Bacterial growth relative to medium, L. monocytogenes, replicate 3 [7]: 60.4017; Viability of infected cells relative to aprotinin, Replicate 1 (A/Hamburg/05/2009 (H1N1)): 0.03506; Viability of infected cells relative to aprotinin, Replicate 2 (A/Hamburg/05/2009 (H1N1)): 0.03971; Viability of infected cells relative to aprotinin, Replicate 3 (A/Hamburg/05/2009 (H1N1)): 0.04612; Bacterial growth relative to medium, P. aeruginosa (50071), replicate 1 [8]: 103.493; Bacterial growth relative to medium, P. aeruginosa (50071), replicate 2 [8]: 107.483; Bacterial growth relative to medium, P. aeruginosa (50071), replicate 3 [8]: 85.194; Bacterial growth relative to medium, P. aeruginosa (1117), replicate 1 [9]: 72.8823; Bacterial growth relative to medium, P. aeruginosa (1117), replicate 2 [9]: 76.8187; Bacterial growth relative to medium, P. aeruginosa (1117), replicate 3 [9]: 66.0758; Insecticidal effect on larvae (in words) (G. mellonella larvae): Individual dead insects
DVVKSKVGQT [LS-AMP-A20] | marginal effects against several bacteria | 65.5327 | 71.5501 | 85.4097 | 65.0524 | 56.0414 | 87.4721 | 95.2629 | 75.2606 | 50.6769 | strongest effect | 84.9437 | 89.1892 | 58.8713 | 0.07308 | 0.07936 | 0.06088 | 0.06093 | 0.1556 | 0.1529 | Viability of infected cells relative to aprotinin, Replicate 4 (A/Hessen/1/2003 (H3N2); […], replicate 4 (additional internal control)): 0.1478; Bacterial growth relative to medium, L. monocytogenes, replicate 1 [7]: 113.144; Bacterial growth relative to medium, L. monocytogenes, replicate 2 [7]: 85.2342; Bacterial growth relative to medium, L. monocytogenes, replicate 3 [7]: 40.8896; Viability of infected cells relative to aprotinin, Replicate 1 (A/Hamburg/05/2009 (H1N1)): 0.03404; Viability of infected cells relative to aprotinin, Replicate 2 (A/Hamburg/05/2009 (H1N1)): 0.03606; Viability of infected cells relative to aprotinin, Replicate 3 (A/Hamburg/05/2009 (H1N1)): 0.06978; Bacterial growth relative to medium, P. aeruginosa (50071), replicate 1 [8]: 100.814; Bacterial growth relative to medium, P. aeruginosa (50071), replicate 2 [8]: 110.766; Bacterial growth relative to medium, P. aeruginosa (50071), replicate 3 [8]: 86.151; Bacterial growth relative to medium, P. aeruginosa (1117), replicate 1 [9]: 78.7161; Bacterial growth relative to medium, P. aeruginosa (1117), replicate 2 [9]: 66.133; Bacterial growth relative to medium, P. aeruginosa (1117), replicate 3 [9]: 53.5452; Insecticidal effect on larvae (in words) (G. mellonella larvae): Individual dead insects
